Measurements as given in patent US20260022143A1, “Cyclic Peptide Inhibitors of IL-23” (JANSSEN PHARMACEUTICA NV, priority 2022, published 2026).
Counter-ions that a name gives are not always drawn. Starred links: 1 amine or outer side, 2 acyl side, 3 side chain; linkers in the order of their positions; H or OH if unused. Positions of bridges follow the written chain, without caps; N, C: chain ends. Non-standard residues stand in square brackets, D forms with d. Residues, ends and D or L forms follow the SMILES beside them. Groups on a side chain read outwards from the residue. *: point of attachment. Me3N+(CH2)2O(CH2)2O(CH2)2CO = C[N+](C)(C)CCOCCOCCC(=O)*; Trp(7-CF3) = N[C@@H](Cc1c[nH]c2c(C(F)(F)F)cccc12)C(=O)O; Trp(7-Me) = Cc1cccc2c(C[C@H](N)C(=O)O)c[nH]c12; Lys(Me3) = C[N+](C)(C)CCCC[C@H](N)C(=O)O; CH2CH2OCH2CH2NMe3+ = C[N+](C)(C)CCOCC*; γGlu = O=C(O)[C@H](CCC(=O)[*:2])N[*:1]; 2Nal = N[C@@H](Cc1ccc2ccccc2c1)C(=O)O; AEF = NCCOc1ccc(C[C@H](N)C(=O)O)cc1; X19 = C[N+](C)(C)C[C@@H](CC(=O)O)N*; 3Pal = N[C@@H](Cc1cccnc1)C(=O)O; Lys(Me) = CNCCCC[C@H](N)C(=O)O; NMeK = CN[C@@H](CCCCN)C(=O)O; Pen = CC(C)(S)[C@H](N)C(=O)O; Lauroyl = CCCCCCCCCCCC(=O)*; Thp = NC1(C(=O)O)CCOCC1; X3 = C[N+](C)(C)CCCCC*; AEEA = NCCOCCOCC(=O)O; Me2NCH2CH2 = CN(C)CC*; Tfa = O=C(C(F)(F)F)*; Sar = CNCC(=O)O

test: Exposed Polar Surface Area (EPSA); assay type: physicochemical; conditions: SFC on Chirex 3014 column; sample 1 mM DMSO stock; read-out: EPSA
Procedure, shortened: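 Retention-based polarity: supercritical CO2 with 20 mM ammonium formate in MeOH (5–60%, 20%/min), Chirex 3014 column, 35 °C. Calibrated against 8 standards to give EPSA (Å^2); each sample measured twice.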

| EPSA | Structure (SMILES) |
| --- | --- |
| 163 A^2 | CC(=O)NCCCC[C@@H]1NC(=O)[C@H](Cc2c[nH]c3c(C)cccc23)NC(=O)[C@H]([C@@H](C)O)NC(=O)[C@H](CC(N)=O)NC(=O)[C@@H](NC(C)=O)C(C)(C)SSC(C)(C)[C@@H](C(=O)N[C@@H](Cc2ccc(OCC[N+](C)(C)C)cc2)C(=O)N[C@@H](Cc2ccc3ccccc3c2)C(=O)NC2(C(=O)N[C@@H](CCCCNC(C)=O)C(=O)N[C@@H](CC(N)=O)C(=O)N[C@@H](Cc3cccnc3)C(=O)N(C)CC(N)=O)CCOCC2)NC1=O [compound 561, MeCO-Pen(3)-N-T-7MeW-K(Ac)-pen(3)-AEF(NMe3)-2Nal-THP-K(Ac)-N-3Pya-Sar-CONH2] |
| 179 A^2 | CC(=O)NCCCC[C@@H]1NC(=O)[C@H](Cc2c[nH]c3c(C)cccc23)NC(=O)[C@H]([C@@H](C)O)NC(=O)[C@H](CC(N)=O)NC(=O)[C@@H](NC(C)=O)C(C)(C)SSC(C)(C)[C@@H](C(=O)N[C@@H](Cc2ccc(OCCN)cc2)C(=O)N[C@@H](Cc2ccc3ccccc3c2)C(=O)NC2(C(=O)N[C@@H](CCC(=O)N[C@H](CC(=O)O)C[N+](C)(C)C)C(=O)N[C@@H](CC(N)=O)C(=O)N[C@@H](Cc3cccnc3)C(=O)N(C)CC(N)=O)CCOCC2)NC1=O [compound 127] (Ac-[Pen]NT[Trp(7-Me)]K(Ac)[Pen][AEF][2Nal][Thp]E(X19)N[3Pal][Sar]-NH2; disulfide 1-6) |
| 131 A^2 | CC(=O)N(C)CCCC[C@@H]1NC(=O)[C@H](Cc2c[nH]c3c(C(F)(F)F)cccc23)NC(=O)[C@H]([C@@H](C)O)NC(=O)[C@H](CC(=O)N(C)C)NC(=O)[C@@H](NC(=O)C(F)(F)F)C(C)(C)SSC(C)(C)[C@@H](C(=O)N[C@@H](Cc2ccc(OCCN(C)C)cc2)C(=O)N[C@@H](Cc2ccc3ccccc3c2)C(=O)NC2(C(=O)N[C@@H](CCCCN(C)C(C)=O)C(=O)N[C@@H](CC(N)=O)C(=O)N[C@@H](Cc3cccnc3)C(=O)N(C)CC(=O)N(C)C)CCOCC2)NC1=O [compound 95, CF3CO-Pen(3)-N(N(Me)2)-T-7CF3W-K(NMeAc)-Pen(3)-AEF(N(Me)2)-2Nal-THP-K(NMeAc)-N-3Pya-Sar-CON(Me)2] (Tfa-[Pen]D(NMe2)T[Trp(7-CF3)][Lys(Me)](Ac)[Pen]Y(Me2NCH2CH2)[2Nal][Thp][Lys(Me)](Ac)N[3Pal][Sar]-NMe2; disulfide 1-6 (inferred)) |
| 163 A^2 | COCCOCCOCCOCCOCCOCCOCCOCCNC(=O)CN(C)C(=O)[C@H](Cc1cccnc1)NC(=O)[C@H](CC(N)=O)NC(=O)[C@H](CCC(=O)O)NC(=O)C1(NC(=O)[C@H](Cc2ccc3ccccc3c2)NC(=O)[C@H](Cc2ccc(OCCN)cc2)NC(=O)[C@H]2NC(=O)[C@H](CCCCNC(C)=O)NC(=O)[C@H](Cc3c[nH]c4c(C)cccc34)NC(=O)[C@H]([C@@H](C)O)NC(=O)[C@H](CC(N)=O)NC(=O)[C@@H](NC(C)=O)C(C)(C)SSC2(C)C)CCOCC1 [compound 132] |
| 184 A^2 | CCCCCCCCCCCC(=O)N[C@@H](CCC(=O)NCCOCCOCC(=O)NCCOCCOCC(=O)NCCCC[C@@H](NC(=O)CCOCCOCC[N+](C)(C)C)C(=O)N[C@@H]1C(=O)N[C@@H](CC(=O)N(C)C)C(=O)N[C@@H]([C@@H](C)O)C(=O)N[C@@H](Cc2c[nH]c3c(C)cccc23)C(=O)N[C@@H](CCCCNC(C)=O)C(=O)N[C@H](C(=O)N[C@@H](Cc2ccc(OCCCCC[N+](C)(C)C)cc2)C(=O)N[C@@H](Cc2ccc3ccccc3c2)C(=O)NC2(C(=O)N[C@@H](CCCCN(C)C(C)=O)C(=O)N[C@@H](CC(N)=O)C(=O)N[C@@H](Cc3cccnc3)C(=O)N(C)[C@@H](CCCCNC(=O)COCCOCCNC(=O)COCCOCCNC(=O)CC[C@H](NC(=O)CCCCCCCCCCC)C(=O)O)C(N)=O)CCOCC2)C(C)(C)SSC1(C)C)C(=O)O [compound 348, cPEG3aCO-k(PEG2PEG2gEC12)-Pen(3)-N(N(Me)2)-T-7MeW-K(Ac)-Pen(3)-TMAPF-2Nal-THP-K(NMeac)-N-3Pya-NMeK(PEG2PEG2gEC12)-CONH2] ({Me3N+(CH2)2O(CH2)2O(CH2)2CO}-[dK]([AEEA-AEEA-γGlu-Lauroyl])[Pen]D(NMe2)T[Trp(7-Me)]K(Ac)[Pen]Y(X3)[2Nal][Thp][Lys(Me)](Ac)N[3Pal][NMeK]([AEEA-AEEA-γGlu-Lauroyl])-NH2; disulfide 2-7) |
| 160 A^2 | CC(=O)NCCCC[C@@H]1NC(=O)[C@H](Cc2c[nH]c3c(C)cccc23)NC(=O)[C@H]([C@@H](C)O)NC(=O)[C@H](CC(N)=O)NC(=O)[C@@H](NC(=O)C(F)(F)F)C(C)(C)SSC(C)(C)[C@@H](C(=O)N[C@@H](Cc2ccc(OCCN)cc2)C(=O)N[C@@H](Cc2ccc3ccccc3c2)C(=O)NC2(C(=O)N[C@@H](CCC(=O)N(C)C)C(=O)N[C@@H](CC(N)=O)C(=O)N[C@@H](Cc3cccnc3)C(=O)N(C)CC(N)=O)CCOCC2)NC1=O [compound 72] (Tfa-[Pen]NT[Trp(7-Me)]K(Ac)[Pen][AEF][2Nal][Thp]E(NMe2)N[3Pal][Sar]-NH2; disulfide 1-6 (inferred)) |
| 149 A^2 | CC(=O)N[C@@H]1C(=O)N[C@@H](CC(=O)N(C)C)C(=O)N[C@@H]([C@@H](C)O)C(=O)N[C@@H](Cc2c[nH]c3c(C)cccc23)C(=O)N[C@@H](CCCCN(C)C(C)=O)C(=O)N[C@H](C(=O)N[C@@H](Cc2ccc(OCCCCC[N+](C)(C)C)cc2)C(=O)N[C@@H](Cc2ccc3ccccc3c2)C(=O)NC2(C(=O)N[C@@H](COCCOCC[N+](C)(C)C)C(=O)N[C@@H](CC(N)=O)C(=O)N[C@@H](Cc3cccnc3)C(=O)N(C)CC(=O)N(C)C)CCOCC2)C(C)(C)SSC1(C)C [compound 275, MeCO-Pen(3)-N(N(Me)2)-T-7MeW-K(NMeAc)-Pen(3)-TMAPF-2Nal-THP-APEG2Ser-N-3Pya-Sar-CON(Me)2] (Ac-[Pen]D(NMe2)T[Trp(7-Me)][Lys(Me)](Ac)[Pen]Y(X3)[2Nal][Thp]S(CH2CH2OCH2CH2NMe3+)N[3Pal][Sar]-NMe2; disulfide 1-6) |
| 166 A^2 | CCCCCCCCCCCC(=O)N[C@@H](CCC(=O)NCCOCCOCC(=O)NCCOCCOCC(=O)NCCCC[C@@H]1NC(=O)[C@H](Cc2c[nH]c3c(C)cccc23)NC(=O)[C@H]([C@@H](C)O)NC(=O)[C@H](CC(=O)N(C)C)NC(=O)[C@@H](NC(=O)C(COCCOCC[N+](C)(C)C)NC(=O)COCCOCCNC(=O)COCCOCCNC(=O)CC[C@H](NC(=O)CCCCCCCCCCC)C(=O)O)C(C)(C)SSC(C)(C)[C@@H](C(=O)N[C@@H](Cc2ccc(OCCOCCOCC[N+](C)(C)C)cc2)C(=O)N[C@@H](Cc2ccc3ccccc3c2)C(=O)NC2(C(=O)N[C@@H](CCCCN(C)C(C)=O)C(=O)N[C@@H](CC(N)=O)C(=O)N[C@@H](Cc3cccnc3)C(=O)N(C)CC(=O)N(C)C)CCOCC2)NC1=O)C(=O)O (relative stereo) [compound 368, C12gEPEG2PEG2CO-APEG2Ser(S*)-Pen(3)-N(N(Me)2)-T-7MeW-K(PEG2PEG2gEC12)-Pen(3)-APEG3F-2Nal-THP-K(NMeAc)-N-3Pya-Sar-CON(Me)2] |
| 139 A^2 | CC(=O)N[C@@H]1C(=O)N[C@@H](CC(=O)N(C)C)C(=O)N[C@@H]([C@@H](C)O)C(=O)N[C@@H](Cc2c[nH]c3c(C)cccc23)C(=O)N[C@@H](CCCC[N+](C)(C)C)C(=O)N[C@H](C(=O)N[C@@H](Cc2ccc(OCCN(C)C)cc2)C(=O)N[C@@H](Cc2ccc3ccccc3c2)C(=O)NC2(C(=O)N[C@@H](CCCC[N+](C)(C)C)C(=O)N[C@@H](CC(N)=O)C(=O)N[C@@H](Cc3cccnc3)C(=O)N(C)CC(=O)N(C)C)CCOCC2)C(C)(C)SSC1(C)C [compound 117, MeCO-Pen(3)-N(N(Me)2)-T-7MeW-K(Me)3-Pen(3)-AEF(N(Me)2)-2Nal-THP-K(Me)3-N-3Pya-Sar-CON(Me)2] (Ac-[Pen]D(NMe2)T[Trp(7-Me)][Lys(Me3)][Pen]Y(Me2NCH2CH2)[2Nal][Thp][Lys(Me3)]N[3Pal][Sar]-NMe2; disulfide 1-6) |
| 144 A^2 | CC(=O)NCCCC[C@@H]1NC(=O)[C@H](Cc2c[nH]c3c(C)cccc23)NC(=O)[C@H]([C@@H](C)O)NC(=O)[C@H](CC(N)=O)NC(=O)[C@@H](NC(C)=O)C(C)(C)SSC(C)(C)[C@@H](C(=O)N[C@@H](Cc2ccc(OCCNC(=O)CCOCCOCC[N+](C)(C)C)cc2)C(=O)N[C@@H](Cc2ccc3ccccc3c2)C(=O)NC2(C(=O)N[C@@H](CNC(C)=O)C(=O)N[C@@H](CC(N)=O)C(=O)N[C@@H](Cc3cccnc3)C(=O)N(C)CC(N)=O)CCOCC2)NC1=O [compound 189] |
| 171 A^2 | CCCCCCCCCCCC(=O)N[C@@H](CCC(=O)NCCOCCOCC(=O)NCCOCCOCC(=O)NCCCC[C@@H]1NC(=O)[C@@H](NC(=O)[C@@H](CCCCNC(=O)COCCOCCNC(=O)COCCOCCNC(=O)CC[C@H](NC(=O)CCCCCCCCCCC)C(=O)O)NC(=O)CCOCCOCC[N+](C)(C)C)C(C)(C)SSC(C)(C)[C@@H](C(=O)N[C@@H](Cc2ccc(OCCCCC[N+](C)(C)C)cc2)C(=O)N[C@@H](Cc2ccc3ccccc3c2)C(=O)NC2(C(=O)N[C@@H](CCCCN(C)C(C)=O)C(=O)N[C@@H](CC(N)=O)C(=O)N[C@@H](Cc3cccnc3)C(=O)N(C)CC(=O)N(C)C)CCOCC2)NC(=O)[C@H](CCCCN(C)C(C)=O)NC(=O)[C@H](Cc2c[nH]c3c(C)cccc23)NC(=O)[C@H]([C@@H](C)O)NC1=O)C(=O)O [compound 380, cPEG3aCO-k(PEG2PEG2gEC12)-Pen(3)-K(PEG2PEG2gEC12)-T-7MeW-K(NMeAc)-Pen(3)-TMAPF-2Nal-THP-K(NMeAc)-N-3Pya-Sar-CON(Me)2] ({Me3N+(CH2)2O(CH2)2O(CH2)2CO}-[dK]([AEEA-AEEA-γGlu-Lauroyl])[Pen]K([AEEA-AEEA-γGlu-Lauroyl])T[Trp(7-Me)][Lys(Me)](Ac)[Pen]Y(X3)[2Nal][Thp][Lys(Me)](Ac)N[3Pal][Sar]-NMe2; disulfide 2-7) |
| 163 A^2 | CC(=O)N(C)CCCC[C@@H]1NC(=O)[C@H](Cc2c[nH]c3c(C)cccc23)NC(=O)[C@H]([C@@H](C)O)NC(=O)[C@H](CC(=O)N(C)C)NC(=O)[C@@H](NC(=O)CCOCCOCC[N+](C)(C)C)C(C)(C)SSC[C@@H](C(=O)N[C@@H](Cc2ccc(OCCCCC[N+](C)(C)C)cc2)C(=O)N[C@@H](Cc2ccc3ccccc3c2)C(=O)NC2(C(=O)N[C@@H](CCCCN(C)C(C)=O)C(=O)N[C@@H](CC(N)=O)C(=O)N[C@@H](Cc3cccnc3)C(=O)N(C)CC(=O)N(C)C)CCOCC2)NC1=O [compound 485, cPEG3aCO-Pen(3)-N(N(Me)2)-T-7MeW-K(NMeAc)-C(3)-TMAPF-2Nal-THP-K(NMeAc)-N-3Pya-Sar-CON(Me)2] ({Me3N+(CH2)2O(CH2)2O(CH2)2CO}-[Pen]D(NMe2)T[Trp(7-Me)][Lys(Me)](Ac)CY(X3)[2Nal][Thp][Lys(Me)](Ac)N[3Pal][Sar]-NMe2; disulfide 1-6) |
